Experimental findings from PubChem BioAssay (NCI) are described below.

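Cultured in 96-well plates, cells were exposed to test compound for 48 hours across five concentrations. TGI: concentration producing complete growth inhibition.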

The subject of the first experiment is SF-295 CNS. The experiment in a line: growth of human tumour cells (NCI), 48 h.
For the compound `CC1C2CC(CC(=O)N2)C1(C)C` (stereo not given), the TGI is over 100 µM.
Same read-out and setting: then `CCOC(=O)CCC(NC(=O)Cc1ccc(Nc2nc3ccccc3nc2-c2ccccc2)cc1)C(=O)OCC` (stereo not given), with 48.4 µM; and `CCOC(=O)NC(C(F)(F)F)(C(F)(F)F)P(=O)(OC(C)C)OC(C)C`, with over 100 µM.
For `O=C(O)C1CC2C3CCC2C1C3=O` (stereo not given), the TGI was over 100 µM.
Still for that read-out and setting: to `CCOC(=O)C(c1c[nH]c2ccccc12)(c1c[nH]c2ccccc12)c1c[nH]c2ccccc12` belongs over 100 µM; to `CN(C)c1ccc(-c2c(C#N)c(N)[nH]c(=S)c2C#N)cc1`, over 100 µM; to `O=c1[nH]c(=O)n(C2OC(CO)C(O)C(F)C2O)cc1F` (stereo not given), over 100 µM.
`CCOC(=O)/C(C)=C\[C@@]1(C)O[C@@H](C)[C@@](C)(OC(C)=O)[C@@H]1OC(C)=O`: the TGI was over 100 µM.

Another experiment relates to OVCAR-3 ovarian. The experiment in a line: growth of human tumour cells (NCI), 48 h.
Compound `O=c1c2cc(S(=O)(=O)Nc3ccccc3Cl)ccc2ncn1NS(=O)(=O)c1ccc(Br)cc1` returned a TGI of over 37.5 µM.
`CC1=C(C(=O)Nc2cccc3c2C(=O)NC3=O)CC(C(=O)Nc2cccc3c2C(=O)NC3=O)=C(C)N1` registered a TGI of over 100 µM.
`N#CC1(C#N)C2CCCCC23OC(=N)C1(C#N)C(c1ccco1)O3` (stereo not given) gave a TGI of 33.5 µM.
`CC1C2CC(CC(=O)N2)C1(C)C` (stereo not given) came in with a TGI of over 100 µM.
Compound `Cc1occc1C(=S)Nc1ccc(Cl)c(C(=O)OCC(F)(F)F)c1` registered a TGI of 81.4 µM.
As to `CCOC(=O)NC(C(F)(F)F)(C(F)(F)F)P(=O)(OC(C)C)OC(C)C`, the TGI was over 100 µM.
`O=C(O)C1CC2C3CCC2C1C3=O` (stereo not given) had a TGI of over 100 µM.
Consider `CCOC(=O)C(c1c[nH]c2ccccc12)(c1c[nH]c2ccccc12)c1c[nH]c2ccccc12`, for which the TGI is over 100 µM.
`CN(C)c1ccc(-c2c(C#N)c(N)[nH]c(=S)c2C#N)cc1`: the TGI was over 100 µM.
The compound `O=c1[nH]c(=O)n(C2OC(CO)C(O)C(F)C2O)cc1F` (stereo not given) showed a TGI of over 100 µM.
Still for that read-out and setting: to `CCOC(=O)/C(C)=C\[C@@]1(C)O[C@@H](C)[C@@](C)(OC(C)=O)[C@@H]1OC(C)=O` belongs over 100 µM.

A further experiment has as its system OVCAR-5 ovarian. Description: growth of human tumour cells (NCI), 48 h.
For the compound `O=c1c2cc(S(=O)(=O)Nc3ccccc3Cl)ccc2ncn1NS(=O)(=O)c1ccc(Br)cc1`, the TGI is over 37.5 µM.
`CC1=C(C(=O)Nc2cccc3c2C(=O)NC3=O)CC(C(=O)Nc2cccc3c2C(=O)NC3=O)=C(C)N1`: the TGI was over 100 µM.
Consider `N#CC1(C#N)C2CCCCC23OC(=N)C1(C#N)C(c1ccco1)O3` (stereo not given), for which the TGI is 61.8 µM.
On to `CC1C2CC(CC(=O)N2)C1(C)C` (stereo not given), for which the TGI was over 100 µM.
For `CCOC(=O)CCC(NC(=O)Cc1ccc(Nc2nc3ccccc3nc2-c2ccccc2)cc1)C(=O)OCC` (stereo not given), the TGI was over 100 µM.
`Cc1occc1C(=S)Nc1ccc(Cl)c(C(=O)OCC(F)(F)F)c1` displayed a TGI of over 100 µM.
The compound `CCOC(=O)NC(C(F)(F)F)(C(F)(F)F)P(=O)(OC(C)C)OC(C)C` displayed a TGI of over 100 µM.
As for `O=C(O)C1CC2C3CCC2C1C3=O` (stereo not given), the TGI was over 100 µM.
As for `CCOC(=O)C(c1c[nH]c2ccccc12)(c1c[nH]c2ccccc12)c1c[nH]c2ccccc12`, the TGI was over 100 µM.
`CN(C)c1ccc(-c2c(C#N)c(N)[nH]c(=S)c2C#N)cc1`: the TGI was over 100 µM.
`O=c1[nH]c(=O)n(C2OC(CO)C(O)C(F)C2O)cc1F` (stereo not given) returned a TGI of over 100 µM.
Compound `CCOC(=O)/C(C)=C\[C@@]1(C)O[C@@H](C)[C@@](C)(OC(C)=O)[C@@H]1OC(C)=O` showed a TGI of over 100 µM.

A further experiment has as its system TK-10 renal. Description: growth of human tumour cells (NCI), 48 h.
On to `O=c1c2cc(S(=O)(=O)Nc3ccccc3Cl)ccc2ncn1NS(=O)(=O)c1ccc(Br)cc1`, for which the TGI is over 37.5 µM.
Same read-out and setting: then `CC1=C(C(=O)Nc2cccc3c2C(=O)NC3=O)CC(C(=O)Nc2cccc3c2C(=O)NC3=O)=C(C)N1`, with over 100 µM; and `N#CC1(C#N)C2CCCCC23OC(=N)C1(C#N)C(c1ccco1)O3` (stereo not given), with 36.1 µM; and `CC1C2CC(CC(=O)N2)C1(C)C` (stereo not given), with over 100 µM.
Consider `CCOC(=O)CCC(NC(=O)Cc1ccc(Nc2nc3ccccc3nc2-c2ccccc2)cc1)C(=O)OCC` (stereo not given), for which the TGI was 58.5 µM.
`Cc1occc1C(=S)Nc1ccc(Cl)c(C(=O)OCC(F)(F)F)c1` yielded a TGI of 43 µM.
Compound `CCOC(=O)NC(C(F)(F)F)(C(F)(F)F)P(=O)(OC(C)C)OC(C)C` returned a TGI of over 100 µM.
`O=C(O)C1CC2C3CCC2C1C3=O` (stereo not given): the TGI is over 100 µM.
The same measure, in the same setting: to `CCOC(=O)C(c1c[nH]c2ccccc12)(c1c[nH]c2ccccc12)c1c[nH]c2ccccc12` belongs over 100 µM; to `CN(C)c1ccc(-c2c(C#N)c(N)[nH]c(=S)c2C#N)cc1`, over 100 µM.
On the same count and under the same terms, to `O=c1[nH]c(=O)n(C2OC(CO)C(O)C(F)C2O)cc1F` (stereo not given) belongs over 100 µM.
The same measure, in the same setting: then `CCOC(=O)/C(C)=C\[C@@]1(C)O[C@@H](C)[C@@](C)(OC(C)=O)[C@@H]1OC(C)=O`, with over 100 µM.

For another experiment, the system named is HS 578T breast. The experiment in a line: growth of human tumour cells (NCI), 48 h.
Consider `O=c1c2cc(S(=O)(=O)Nc3ccccc3Cl)ccc2ncn1NS(=O)(=O)c1ccc(Br)cc1`, for which the TGI was over 37.5 µM.
As for `CC1=C(C(=O)Nc2cccc3c2C(=O)NC3=O)CC(C(=O)Nc2cccc3c2C(=O)NC3=O)=C(C)N1`, the TGI was over 100 µM.
For the compound `N#CC1(C#N)C2CCCCC23OC(=N)C1(C#N)C(c1ccco1)O3` (stereo not given), the TGI is 70.4 µM.
Same read-out and setting: to `CC1C2CC(CC(=O)N2)C1(C)C` (stereo not given) belongs over 100 µM; to `CCOC(=O)CCC(NC(=O)Cc1ccc(Nc2nc3ccccc3nc2-c2ccccc2)cc1)C(=O)OCC` (stereo not given), 74.6 µM; to `Cc1occc1C(=S)Nc1ccc(Cl)c(C(=O)OCC(F)(F)F)c1`, over 100 µM.
Regarding `CCOC(=O)NC(C(F)(F)F)(C(F)(F)F)P(=O)(OC(C)C)OC(C)C`, the TGI was over 100 µM.
In turn, `O=C(O)C1CC2C3CCC2C1C3=O` (stereo not given) had a TGI of over 100 µM.
`CCOC(=O)C(c1c[nH]c2ccccc12)(c1c[nH]c2ccccc12)c1c[nH]c2ccccc12` registered a TGI of 76.2 µM.
In turn, `CN(C)c1ccc(-c2c(C#N)c(N)[nH]c(=S)c2C#N)cc1` gave a TGI of 35.7 µM.
The same measure, in the same setting: then `O=c1[nH]c(=O)n(C2OC(CO)C(O)C(F)C2O)cc1F` (stereo not given), with over 100 µM; and `CCOC(=O)/C(C)=C\[C@@]1(C)O[C@@H](C)[C@@](C)(OC(C)=O)[C@@H]1OC(C)=O`, with over 100 µM.
